Measurements published in US6310093A (priority 1998, dated 2001).
Residue numbers refer to the chain shown, from its start. Where “and” joins values, the source holds several entries; their conditions need not be identical. Identical values can stand only once. Like-named read-outs stand apart in the source and are kept apart here.

Legend:
glutaminase = details: cited from earlier work
[1] = test system: neuronal cells in culture
[2] = Huber; cited from earlier work
[3] = target: T1, glutaminase in live (intact) neurons (Mus musculus, UniProt D3Z7P3); format: cell-based, mouse (Swiss Webster)
T1 sequence (D3Z7P3 55-674): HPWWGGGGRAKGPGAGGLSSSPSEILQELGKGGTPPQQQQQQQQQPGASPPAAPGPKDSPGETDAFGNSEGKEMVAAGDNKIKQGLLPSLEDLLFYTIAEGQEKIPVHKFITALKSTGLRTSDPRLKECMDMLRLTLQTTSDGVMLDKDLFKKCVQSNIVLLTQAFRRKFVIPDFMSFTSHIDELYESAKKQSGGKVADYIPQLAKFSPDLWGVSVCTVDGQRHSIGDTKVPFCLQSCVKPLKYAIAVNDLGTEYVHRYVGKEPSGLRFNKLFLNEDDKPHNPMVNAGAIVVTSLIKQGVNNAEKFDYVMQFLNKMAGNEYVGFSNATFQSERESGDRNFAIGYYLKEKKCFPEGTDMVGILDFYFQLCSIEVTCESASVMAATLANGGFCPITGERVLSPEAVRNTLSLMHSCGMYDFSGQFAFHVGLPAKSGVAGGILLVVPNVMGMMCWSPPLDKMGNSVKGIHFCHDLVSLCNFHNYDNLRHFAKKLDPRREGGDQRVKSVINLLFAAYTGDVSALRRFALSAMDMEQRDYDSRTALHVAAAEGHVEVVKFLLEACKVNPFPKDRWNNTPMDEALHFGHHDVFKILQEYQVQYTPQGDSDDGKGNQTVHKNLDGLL

[4] = Kaneko et al. 1992; cited from earlier work
[5] = test system: hippocampal slices (field potential)
[6] = target: T2, glutaminase in damaged neurons (Mus musculus, UniProt D3Z7P3)
T2 sequence (D3Z7P3 73-674 limits assumed): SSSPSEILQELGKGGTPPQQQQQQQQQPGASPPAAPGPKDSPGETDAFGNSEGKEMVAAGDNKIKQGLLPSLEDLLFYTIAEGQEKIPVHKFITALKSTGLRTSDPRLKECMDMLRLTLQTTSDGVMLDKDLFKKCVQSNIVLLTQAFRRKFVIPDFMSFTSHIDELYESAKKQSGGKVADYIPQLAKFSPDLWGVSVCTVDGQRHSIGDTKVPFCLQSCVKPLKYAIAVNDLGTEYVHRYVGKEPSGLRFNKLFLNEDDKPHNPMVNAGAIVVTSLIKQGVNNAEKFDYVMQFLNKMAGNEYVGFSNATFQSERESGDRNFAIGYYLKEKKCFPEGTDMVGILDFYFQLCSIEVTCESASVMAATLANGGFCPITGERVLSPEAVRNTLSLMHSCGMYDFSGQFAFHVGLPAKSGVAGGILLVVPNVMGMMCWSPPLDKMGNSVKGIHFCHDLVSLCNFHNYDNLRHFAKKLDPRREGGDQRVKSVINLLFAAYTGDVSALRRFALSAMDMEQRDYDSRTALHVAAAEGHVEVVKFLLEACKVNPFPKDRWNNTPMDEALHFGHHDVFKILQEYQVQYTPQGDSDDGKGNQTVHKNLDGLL

[7] = test system: glial cultures (astrocytes); format: cell-based, mouse (Swiss Webster)
[8] = target: T3, glutaminase (brain membranes) (Rattus norvegicus, UniProt P13264); test: biochemical
T3 construct: Membranes are prepared by homogenization of brain tissue in 330 mM sucrose; from tissue; host or cells: rat brain, crude membranes (17000 G pellet)
T3 sequence (P13264 73-674 limits assumed): T2 sequence (D3Z7P3 73-674 limits assumed) with I64V, G590E

[9] = test system: mixed glial-neuronal cultures; test: Glutamate uptake (clearance) by mixed glial-neuronal cultures; format: cell-based, mouse (Swiss Webster)
Experimental: (§1) This allows expression of medium glutamate concentrations as:
(§2) where [Glu], in units of μM, is the concentration of glutamate in the 0.4 ml of medium in a culture well, S (in μM/min) is the rate of addition of glutamate to the culture medium from cellular sources, and k (in min^-1) is the empirically determined rate constant for clearance (Roberts). […] Although the value of k is proportional to cell (carrier) density, little variation is expected in cultures containing glia, as glial cultures are confluent.
as §2, with “(Roberts, D. V. (1977) Enzyme Kinetics, Cambridge University Press, Cambridge, pp23-30.).” for “(Roberts).”, “glia” for “glia,”

[10] = test system: glial cultures (astrocytes); details: Hertz; Drejer; read-out: Km for cellular uptake of glutamate; cited from earlier work
neuronal cultures = test: Glutamate uptake (clearance) by neuronal cultures; format: cell-based, mouse (Swiss Webster); details: intact neurons
Experimental: as §1, §2
as §2, with “(Roberts, D. V. (1977) Enzyme Kinetics, Cambridge University Press, Cambridge, pp23-30.).” for “(Roberts).”, “glia” for “glia,”

isolated neurons = details: Rosenberg; Dugan et al., 1995; read-out: IC50 for toxicity of glutamate on isolated neurons; cited from earlier work
[11] = test system: mixed neuronal-astrocyte cultures
[12] = test system: mixed neuronal-astrocyte cultures; test: cells; details: Mus musculus, 24 h, read-out: % cell death (LDH)
[13] = test system: neuronal cells in culture; test: cells; details: Mus musculus, read-out: LDH release by NMDA exposure relative to freeze-thaw
[14] = test system: pure neuronal cultures (cortical neurons) exposed to glutamine
[15] = test system: ischemic penumbra (dialysate glutamate); test: In vivo microdialysis of ischemic penumbra after MCAO; design: species or system rat; details: subsequent perfusion of phosphate; ±400%
Experimental: In further microdialysis experiments, exogenous glutamine was added to the ischemic penumbra via the probe, and dialysis glutamate was measured, as described in Example 7. When 10 mM glutamine plus 20 mM sodium phosphate were perfused into the penumbra for one hour, dialysate glutamate was elevated 315% as compared to control (±115%). […] The effects on glutamate were much more pronounced than on other amino acids measured; therefore, these studies provided further support for the involvement of extracellular glutaminase activity in producing the elevated levels of glutamate in cortical tissue undergoing ischemic damage.
The middle cerebral arteries of rats were occluded as in EXAMPLE 7, and the rats were returned to their cages overnight. The next morning, dialysis probes ([…], 2 mm length, 20,000 dalton cutoff) were inserted into ischemic penumbra (cortex) and perfused with artificial CSF at 3 μl/min for 1 h prior to collection of 10 minute fractions of dialysate. The effectiveness of the occlusion and the placement of probes were verified by TTC staining of 1 mm sections at the conclusion of the experiment. Amino acids in the dialysate were measured by reverse phase HPLC with fluorescence detection, after derivatization of the dialysates with o-phthaldialdehyde and N-acetyl-L-cysteine […]

[16] = 7 h hypoxia, 2 mM Gln + 30 uM pCMPS

Q: With `N[C@@H](CC(=O)CCl)C(=O)O` [Chloroketone, L-2-amino-4-oxo-5-chloropentanoic acid] as the compound, how does the “glutaminase inhibition (literature, in words)” value (glutaminase) read?
A: only weak (mM) inhibitors

Q: And the “LDH release from neuronal cells (in words)” value [1]?
A: resulted in release of lactate dehydrogenase from the cells, indicating cellular toxicity and death

Q: With `[N-]=[N+]=CC(=O)CC[C@H](N)C(=O)O` [DON, 6-diazo-5-oxo-L-norleucine] as the compound, how does the “crossing of cell membranes (in words)” value [2] read?
A: readily cross cell membranes

Q: And the “effect on glutaminase activity of intact/live neurons (in words)” value [3]?
A: inhibition of glutaminase

Q: What about the “glutamate production after neuronal death” value [3] of the same compound?
A: 0.23 ± 0.03 μM Glu/min and 0.15 ± 0.02 μM Glu/min

Q: What about the “LDH release from neuronal cells (in words)” value [1] of the same compound?
A: resulted in release of lactate dehydrogenase from the cells, indicating cellular toxicity and death

Q: What about the “toxicity and tissue penetration after CNS administration (in words)” value [4] of the same compound?
A: toxicity and poor tissue penetration

Q: What about the “effect on hippocampal field potential (in words)” value [5] of the same compound?
A: decreased the magnitude and prolonged the duration of the field potential

Q: And the “inhibition of glutamate production” value [6]?
A: 90% and 50%

Q: And the “inhibition of glutaminase activity in damaged cells (in words)” value [6]?
A: inhibit glutaminase activity in damaged cells

Q: What does the source list for `N[C@@H](CCC(=O)O)C(=O)O` [L-glutamic acid]?
A: Glutamate uptake (k) [7]: 0.083; first order rate constant for glutamate uptake [7]: 0.083 min⁻¹; glutamate uptake rate of glial vs neuronal cultures [7]: about 7 times; glutaminase inhibition (in words) [8]: no significant effect on enzyme activity at 3.3 mM; activity at 1000 µM ([8]; read-out: Glutaminase Activity): 105 ± 15%; activity at 3300 µM ([8]; read-out: Glutaminase Activity): 113 ± 32%; first order rate constant for glutamate uptake ([9]; 15 μM glutamate): 0.072 min⁻¹; Glutamate uptake (k) ([9]; Table 2, glial-neuronal): 0.072; Km [10]: ~45 µM; Glutamate uptake (k) (neuronal cultures): 0.012 min⁻¹; IC50 (isolated neurons): 5 to 10 µM

Q: With `CN[C@H](CC(=O)O)C(=O)O` [NMDA, N-methyl-D-aspartate] as the compound, how does the Glu [11] read?
A: 7.0 ± 0.6

Q: What about the cytotoxicity at 500 µM [12] of the same compound?
A: 100%

Q: And the cytotoxicity at 500 µM [13]?
A: ~85%

Q: For `N[C@H](C(=O)O)[C@@H]1CC(Cl)=NO1` [acivicin], which “glutaminase inhibition (literature, in words)” value (glutaminase) is on record?
A: do not inhibit glutaminase

Q: And the “crossing of cell membranes (in words)” value [2]?
A: readily cross cell membranes

Q: What about the “effect on glutamine hydrolysis by damaged neurons (in words)” value [6] of the same compound?
A: no effect on glutamine hydrolysis

Q: With `[N-]=[N+]=CC(=O)OC[C@H](N)C(=O)O` [azaserine] as the compound, how does the “glutaminase inhibition (literature, in words)” value (glutaminase) read?
A: do not inhibit glutaminase

Q: Which “effect on glutamine hydrolysis by damaged neurons (in words)” value [6] does the source give for `NNC(=O)CCC(N)C(=O)O` (stereo not shown) [glutamate-γ-hydrazide] here?
A: no effect on glutamine hydrolysis

Q: Which “glial uptake of glutamate (in words)” value ([7]; at much higher concentrations than inhibition of exposed glutaminase) does the source give for `O=S(=O)(O)c1cc[c]([Hg][Cl])cc1` [pCMPS, p-(chloromercuri)phenyl sulfonic acid] here?
A: blocks glial uptake of glutamate

Q: And the “effect on glutaminase activity of intact/live neurons (in words)” value [3]?
A: lack of effect

Q: And the “effect on medium glutamate and release of LDH in hypoxic mixed cultures (in words)” value ([11]; 30 μM pCMPS, 2 mM glutamine, hypoxia 7h)?
A: lowered medium glutamate and release of LDH

Q: What about the medium glutamate [11, 16] of the same compound?
A: 1.45 ± 1.0 μM Glu

Q: What about the “neuronal LDH release” value [11, 16] of the same compound?
A: 38.5 ± 8.1%

Q: What about the “LDH release from control cultures (in words)” value ([1]; 30 μM) of the same compound?
A: did not cause LDH release from control cultures

Q: What about the “effect on hippocampal field potential (in words)” value ([5]; 120 μM, 60 min perfusion) of the same compound?
A: no effect on the field potential

Q: And the “LDH release caused by glutamine exposure (in words)” value [14]?
A: prevented the release of LDH

Q: And the medium glutamate [14]?
A: 10.3 ± 4 μM Glu

Q: What about the “neuronal morphology (in words)” value [14] of the same compound?
A: neurons retained their normal appearance after 24 h

Q: What about the “neuroprotection (in words)” value [14] of the same compound?
A: protected pure neuronal cultures from neuronal damage caused by exposure to glutamine

Q: What about the “neuronal LDH release” value ([14]; mouse, pure neuronal cultures, 24 h, 30 µM) of the same compound?
A: 17 ± 10.5

Q: And the “concentration required to inhibit glutaminase” value [6]?
A: 10 to 30 µM

Q: And the “inhibition of glutamine hydrolysis by NMDA-damaged neurons (in words)” value ([6]; 30 μM)?
A: almost completely inhibited

Q: And the “glutamate generation by NMDA-damaged neurons (in words)” value ([6]; 600 μM)?
A: completely abolished glutamate generation

Q: For `O=P(O)(O)O` [phosphate, sodium phosphate], which “dialysate glutamate, % of control” value [15] is on record?
A: 845 % of control

Q: What about the “increase of glutamate generation” value ([6]; mixed neuronal-glial cultures, 20000 µM) of the same compound?
A: 8 fold
